The values below come from US8318949B2, “Organic compounds” (Novartis AG, priority 2008, dated 2012).

The melting point is the temperature of the solid-liquid transition.

Each structure is given as a SMILES string.

Turning to `Cc1nnc(-c2sc(N3CCN(Cc4ccc(F)cc4)C3=O)nc2C)[nH]1` [Example 3.1, 1-(4-fluorobenzyl)-3-[4-methyl-5-(5-methyl-4H-1,2,4-triazol-3-yl)thiazol-2-yl]imidazolidin-2-one], the melting point was in the range of 248 to 249 °C.
In turn, `Cc1nc(N2C[C@@H](C)N(Cc3ccc(F)cc3)C2=O)sc1C(=O)NCc1ccccn1` [Example 2.5, (R)-2-(3-(4-fluorobenzyl)-4-methyl-2-oxoimidazolidin-1-yl)-4-methyl-N-(pyridin-2-ylmethyl)thiazole-5-carboxamide] had a melting point of 118 to 119 °C.
The result for `Cc1nc(-n2cnn(Cc3ccc(F)cc3)c2=O)sc1-c1nn[nH]n1` [Example 18, 1-(4-fluorobenzyl)-4-(4-methyl-5-(2H-tetrazol-5-yl)thiazol-2-yl)-1H-1,2,4-triazol-5(4H)-one] reads 136 to 139 °C.
Consider `Cc1nc(-n2cnn(Cc3ccc(F)cc3)c2=O)sc1C(=O)NCc1csc(C(C)C)n1` [Example 16.7], for which the melting point lay in the range of 151 to 153 °C.
Turning to `Cc1nc(-n2cnn(Cc3ccc(F)cc3)c2=O)sc1C(N)=O` [Example 1, 2-(1-(4-fluorobenzyl)-5-oxo-1H-1,2,4-triazol-4(5H)-yl)-4-methylthiazole-5-carboxamide], the melting point was 232 to 233 °C.
The result for `Cc1cc(-c2sc(N3CCN(Cc4cccc(C(F)(F)F)c4)C3=O)nc2C)n[nH]1` [Example 6.1, 1-(4-methyl-5-(5-methyl-1H-pyrazol-3-yl)thiazol-2-yl)-3-(3-(trifluoromethyl)benzyl)imidazolidin-2-one] reads 163 to 164 °C; that for `Cc1cc(CNC(=O)c2sc(N3C[C@@H](C)N(Cc4ccc(F)cc4)C3=O)nc2C)no1` [Example 2.11, (R)-2-(3-(4-fluorobenzyl)-4-methyl-2-oxoimidazolidin-1-yl)-4-methyl-N-((5-methylisoxazol-3-yl)methyl)thiazole-5-carboxamide], 139 to 140 °C; that for `Cc1cncc(CNC(=O)c2sc(N3CCN(CCCC(F)(F)F)C3=O)nc2C)n1` [Example 12.6, 4-methyl-N-((6-methylpyrazin-2-yl)methyl)-2-(2-oxo-3-(4,4,4-trifluorobutyl)imidazolidin-1-yl)thiazole-5-carboxamide], 123 °C.
For `Cc1nc(N2C[C@@H](C)N(Cc3cc(F)cc(F)c3)C2=O)sc1C(N)=O` [Example 1.14, (R)-2-(3-(3,5-difluorobenzyl)-4-methyl-2-oxoimidazolidin-1-yl)-4-methylthiazole-5-carboxamide], the melting point was 212 to 213 °C.
With `Cc1nc(-n2cnn(CC3CC3)c2=O)sc1C(=O)NCc1ccncc1` [Example 14, 2-(1-(cyclopropylmethyl)-5-oxo-1H-1,2,4-triazol-4(5H)-yl)-4-methyl-N-(pyridin-4-ylmethyl)thiazole-5-carboxamide], the melting point lay in the range of 169 to 170 °C.
The result for `Cc1nc(N2CCN(CC3CC3)C2=O)sc1C(=O)NCc1cncc(F)c1` [Example 12, 2-(3-(cyclopropylmethyl)-2-oxoimidazolidin-1-yl)-N-((5-fluoropyridin-3-yl)methyl)-4-methylthiazole-5-carboxamide] reads 144 to 145 °C; that for `Cc1nc(N2CCN(CC3CC3)C2=O)sc1C(=O)NCc1ncccn1` [Example 12.11, 2-(3-(cyclopropylmethyl)-2-oxoimidazolidin-1-yl)-4-methyl-N-(pyrimidin-2-ylmethyl)thiazole-5-carboxamide], 218 to 220 °C; that for `Cc1nc(N2CCN(Cc3ccc(F)c(F)c3)C2=O)sc1C(N)=O` [Example 1.7, 2-(3-(3,4-difluorobenzyl)-2-oxoimidazolidin-1-yl)-4-methylthiazole-5-carboxamide], 221 to 223 °C.
With `Cc1nc(N2CCN(CCCC(F)(F)F)C2=O)sc1C(=O)NCc1cccnc1` [Example 12.3, 4-methyl-2-(2-oxo-3-(4,4,4-trifluorobutyl)imidazolidin-1-yl)-N-(pyridin-3-ylmethyl)thiazole-5-carboxamide] the figure was 167 to 169 °C; with `Cc1cc(CNC(=O)c2sc(N3C[C@@H](C)N(Cc4ccc(F)cc4)C3=O)nc2C)[nH]n1` [Example 2.9, (R)-2-(3-(4-fluorobenzyl)-4-methyl-2-oxoimidazolidin-1-yl)-4-methyl-N-((3-methyl-1H-pyrazol-5-yl)methyl)thiazole-5-carboxamide], 215 to 216 °C.
The result for `Cc1nc(N2CCN(CC3CC3(F)F)C2=O)sc1-c1cc[nH]n1` (centres unmarked) [Example 17, 1-((2,2-difluorocyclopropyl)methyl)-3-(4-methyl-5-(1H-pyrazol-3-yl)thiazol-2-yl)imidazolidin-2-one] reads 227 to 230 °C; that for `Cc1cc(-c2sc(N3CCN(CC4CC4)C3=O)nc2C)n[nH]1` [Example 6, 1-(cyclopropylmethyl)-3-(4-methyl-5-(5-methyl-1H-pyrazol-3-yl)thiazol-2-yl)imidazolidin-2-one], 231 to 233 °C; that for `Cc1nc(N2CCN(CC3CC3(F)F)C2=O)sc1C(=O)NCc1ncco1` (centres unmarked) [Example 16.1, 2-(3-((2,2-difluorocyclopropyl)methyl)-2-oxoimidazolidin-1-yl)-4-methyl-N-(oxazol-2-ylmethyl)thiazole-5-carboxamide], 156 to 158 °C.
For the molecule `Cc1nc(N2C[C@@H](C)N(Cc3ccc(C(F)(F)F)cc3)C2=O)sc1C(N)=O` [Example 1.16, (R)-4-methyl-2-(4-methyl-2-oxo-3-(4-(trifluoromethyl)benzyl)imidazolidin-1-yl)thiazole-5-carboxamide], the melting point fell in the range of 110 to 112 °C.
The result for `Cc1nnc(-c2sc(N3CCN(Cc4ccccc4)C3=O)nc2C)[nH]1` [Example 11, 1-benzyl-3-(4-methyl-5-(5-methyl-4H-1,2,4-triazol-3-yl)thiazol-2-yl)imidazolidin-2-one] reads 284 to 287 °C; that for `Cc1nc(N2CCN(CC3CC3(F)F)C2=O)sc1C(=O)NCc1cncs1` (centres unmarked) [Example 16.2, 2-(3-((2,2-difluorocyclopropyl)methyl)-2-oxoimidazolidin-1-yl)-4-methyl-N-(thiazol-5-ylmethyl)thiazole-5-carboxamide], 182 to 184 °C.
With `Cc1nc(-n2cnn(CC3CC3)c2=O)sc1C(=O)NCc1ccccn1` [Example 14.3, 2-(1-(Cyclopropylmethyl)-5-oxo-1H-1,2,4-triazol-4(5H)-yl)-4-methyl-N-(pyridin-2-ylmethyl)thiazole-5-carboxamide] the figure was 160 to 161 °C; with `Cc1nc(N2C(=O)N(Cc3ccc(F)cc3)C[C@H]2C)sc1C(=O)NCc1ccccn1` [Example 2.18, (R)-2-(3-(4-fluorobenzyl)-5-methyl-2-oxoimidazolidin-1-yl)-4-methyl-N-(pyridin-2-ylmethyl)thiazole-5-carboxamide], 55 to 57 °C.
As to `Cc1nc(N2CCN(Cc3ccc(OC(F)(F)F)cc3)C2=O)sc1C(N)=O` [Example 1.9, 4-methyl-2-(2-oxo-3-(4-(trifluoromethoxy)benzyl)imidazolidin-1-yl)thiazole-5-carboxamide], the melting point fell in the range of 185 to 187 °C.
Take `Cc1nc(N2CCN(CC3CC3)C2=O)sc1C(=O)NCc1ncco1` [Example 12.15, 2-(3-(cyclopropylmethyl)-2-oxoimidazolidin-1-yl)-4-methyl-N-(oxazol-2-ylmethyl)thiazole-5-carboxamide]: the melting point lay within 172 to 174 °C.
The result for `Cc1nc(N2CCN(CCCC(F)(F)F)C2=O)sc1-c1cc[nH]n1` [Example 17.1, 1-(4-methyl-5-(1H-pyrazol-3-yl)thiazol-2-yl)-3-(4,4,4-trifluorobutyl)imidazolidin-2-one] reads 185 to 186 °C; that for `Cc1nc(-n2cnn(CC3CC3(F)F)c2=O)sc1C(=O)NCc1cccnc1` (centres unmarked) [Example 15, 2-(1-((2,2-difluorocyclopropyl)methyl)-5-oxo-1H-1,2,4-triazol-4(5H)-yl)-4-methyl-N-(pyridin-3-ylmethyl)thiazole-5-carboxamide], 160 to 161 °C; that for `COc1ccc(CN2CCN(c3nc(C)c(C(N)=O)s3)C2=O)cc1F` [Example 1.11, 2-(3-(3-fluoro-4-methoxybenzyl)-2-oxoimidazolidin-1-yl)-4-methylthiazole-5-carboxamide], 182 to 184 °C.
With `Cc1nc(-n2cnn(CC3CC3(F)F)c2=O)sc1C(N)=O` (centres unmarked) [Example 16.6, 2-(1-((2,2-difluorocyclopropyl)methyl)-5-oxo-1H-1,2,4-triazol-4(5H)-yl)-4-methylthiazole-5-carboxamide] the figure was 273 to 275 °C; with `Cc1nc(N2CCN(CC3CC3)C2=O)sc1C(N)=O` [Example 1.5, 2-(3-(cyclopropylmethyl)-2-oxoimidazolidin-1-yl)-4-methylthiazole-5-carboxamide], 198 to 200 °C.
With `Cc1nc(N2C[C@H](C)N(Cc3ccc(F)cc3)C2=O)sc1C(=O)NCc1cccnc1` [Example 2, (S)-2-(3-(4-Fluorobenzyl)-4-methyl-2-oxoimidazolidin-1-yl)-4-methyl-N-(pyridin-3-ylmethyl)thiazole-5-carboxamide] the figure was 67 to 70 °C; with `Cc1nc(N2CCN(Cc3ccc(F)cc3)C2=O)sc1C(=O)NCc1csc(C(C)C)n1` [Example 16.4, 2-(3-(4-fluorobenzyl)-2-oxoimidazolidin-1-yl)-N-((2-isopropylthiazol-4-yl)methyl)-4-methylthiazole-5-carboxamide], 170 to 172 °C; with `Cc1cc(-c2sc(N3CCN(Cc4ccc(F)cc4)C3=O)nc2C)n[nH]1` [Example 6.2, 1-(4-fluorobenzyl)-3-(4-methyl-5-(5-methyl-1H-pyrazol-3-yl)thiazol-2-yl)imidazolidin-2-one], 218 to 221 °C.
`Cc1nc(-n2cnn(CC3CC3)c2=O)sc1C(N)=O` [Example 1.1, 2-[1-(cyclopropylmethyl)-5-oxo-1H-1,2,4-triazol-4(5H)-yl]-4-methylthiazole-5-carboxamide] yielded a melting point of 180 to 181 °C.
With `Cc1nc(N2C[C@@H](C)N(Cc3ccc(F)cc3)C2=O)sc1C(=O)NCc1ccc(F)c(F)c1` [Example 2.6, (R)-N-(3,4-difluorobenzyl)-2-(3-(4-fluorobenzyl)-4-methyl-2-oxoimidazolidin-1-yl)-4-methylthiazole-5-carboxamide] the figure was 134 to 135 °C.
